Assay results as given in patent publication US20230183798A1, “COMPOSITIONS AND METHODS FOR MODIFYING POLYMERASE-NUCLEIC ACID COMPLEXES” (Pacific Biosciences of California, Inc., priority 2020, published 2023).

Columns and labels:
[1] = system: polymerase-nucleic acid complexes (ternary complexes); assay: Stripping nucleotides from ternary complexes: crosstalk metrics after NSB wash in 2x2 examination sequencing; format: biochemical; conditions: for Capability of stripping nucleotides from ternary complexes while retaining polymerase on primed-template nucleic acid: candidate in NSB; for Overall performance of NSB having candidate vs NSB having isopropanol: vs 20% v/v isopropanol (SOP) NSB; for A_T crosstalk (Cy5-dATP carryover from first exam into second exam) compared to NSB having isopropanol / C_G crosstalk (carryover of C signal from first exam into G channel of second exam) compared to NSB having isopropanol: alternating cycles vs 20% v/v isopropanol (SOP); for Concentration range in NSB found effective: other concentrations tested in addition to Table 1
Method: Template nucleic acid strands synthesized in 12 PCR reactions were prepared, and then independently bound to beads. […] Beads harboring immobilized template strands were then attached to the inner surface of a flow cell. Sequencing was performed for 22 cycles, where each cycle included subroutines for (i) Extension: adding a reversibly terminated nucleotide to primers that were hybridized to the immobilized templates, (ii) Examination: forming and detecting stabilized ternary complexes on the reversibly terminated, immobilized primer-template hybrids, and (iii) Activation: cleaving the reversible terminator from the extended primers.
The Examination subroutine was performed in a 2×2 format as diagrammed in FIG. 1. Specifically, a mixture of Cy5 labelled dATP, Cy7 labelled dCTP, unlabeled dTTP and unlabeled dGTP was delivered to the flow cell that contained polymerase-nucleic acid complexes on the beads, the system paused fluid flow to allow nucleotides to bind at cognate positions of the templates, thereby forming ternary complexes. Free nucleotide was removed from the flow cell by flowing IMG reagent. […] The flow cell was then imaged via fluorescence microscopy to detect ternary complexes that contained a labeled nucleotide that was a cognate for the next correct nucleotide in each of the template nucleic acids. The flow cell was then washed with NSB solutions having various compositions as set forth below. After the NSB wash, a mixture of Cy5 labelled dTTP, Cy7 labelled dGTP, unlabeled dCTP and unlabeled dATP was delivered to the flow cell, and the system paused fluid flow to allow nucleotides to bind, thereby forming ternary complexes. Free nucleotide was removed by flowing IMG reagent and then the flow cell was again imaged.
The concentrations are provided as a percentage in weight of compound per total volume of NSB (w/v) or volume of compound per total volume of NSB (v/v). The concentration can also be expressed as a molar concentration and this can be helpful, for example, as a way to compare the amounts of each compound tested. […] The molar concentrations of 1,5 pentanediol, propylene glycol, hexylene glycol, sulfolane, DMSO, ethyl methyl sulfone and 2-mthoxy ethanol in NSB were similar to the molar concentration of isopropanol in the SOP NSB.
The effectiveness of each candidate compound was determined from the following crosstalk metrics. The A_T crosstalk metric indicates how much Cy5-dATP is carried over from the first exam such that it is detected in the second exam. Similarly, the C_G crosstalk metric indicates how much Cy7-dCTP is carried over from the first exam such that it is detected in the second exam. A lower value for the crosstalk metric indicates less carryover and is correlated with improved sequencing results. On the other hand, a higher value for the crosstalk metric indicates more carryover and lower quality sequencing results.
Results were evaluated as a comparison of crosstalk metrics measured for NSB having 20% v/v/isopropanol (SOP) compared to the crosstalk metric measured for NSB having each of the respective candidate compounds. In all cases, the comparisons were based on data obtained for sequencing runs performed in a single lane of a flow cell. The format of the run was as follows: Cycle_1(SOP)=>Cycle_2(candidate)=>Cycle_3(SOP)=>Cycle_4(candidate) and so on. The crosstalk metric was determined separately for the SOP and candidate cycles, respectively. This format was used to minimize the confounding influence of run-to-run variations when comparing between SOP and each candidate.

[2] = Solubility of candidate compound in NSB; format: physicochemical; conditions: NSB solution
[3] = Stability of NSB fluid foam in a flow cell; format: physicochemical; conditions: 28% 1,6 hexanediol or 20% isopropanol, 55° C., images before and after 1 minute pause in flow
Method: NSB fluid foam having 20% isopropanol (SOP) or 28% 1,6 hexanediol was flowed through a flow cell (40 μl/s flow rate, 300 μl volume, 35 psi positive pressure, 55° C.). The flow was paused and a first image of the foam was acquired immediately. The foam was allowed to sit for 60 seconds and then a second image was taken.

[4] = Flammability
[5] = NSB with candidate at Table 1 concentration, lower = less carryover

| Compound | Capability of stripping nucleotides from ternary complexes while retaining polymerase on primed-template nucleic acid [1] | Overall performance of NSB having candidate vs NSB having isopropanol [1] | A_T crosstalk (Cy5-dATP carryover from first exam into second exam) compared to NSB having isopropanol [1, 5] | Concentration range in NSB found effective [1] | C_G crosstalk (carryover of C signal from first exam into G channel of second exam) compared to NSB having isopropanol [1, 5] | further results |
| --- | --- | --- | --- | --- | --- | --- |
| COCCO [2-methoxy ethanol] | can also be useful |  |  |  |  |  |
| CC(O)CO (stereo not drawn) [Propylene glycol] | capable of stripping nucleotides from ternary complexes while retaining polymerase association with primed-template nucleic acid | did not perform as well as isopropanol |  |  |  |  |
| CCS(C)(=O)=O [ethyl methyl sulfone] |  |  | stronger | 1.4-2.8% |  | A_T crosstalk metric [1, 5]: below 0.2 |
| O=S1(=O)CCCC1 [sulfolane] |  | outperformed NSB having isopropanol | comparable |  | better |  |
| OCCCCCO [1,5 pentanediol] |  |  | stronger |  | stronger | A_T crosstalk metric [1, 5]: about 0.16; C_G crosstalk metric [1, 5]: about 0.16 |
| C[S+](C)[O-] [DMSO, dimethyl sulfoxide] |  |  | stronger | 21-26% |  | A_T crosstalk metric [1, 5]: below 0.35 |
| OCCCCCCCCO [1,8 octanediol] |  |  |  |  |  | Solubility in NSB [2]: not immediately soluble |
| OCCCCCCO [1,6 hexanediol] |  | outperformed NSB having isopropanol | modestly lower | 10-31% | significantly lower | Foam stability [3]: greater foam stability; Flammability [4]: non-flammable |
| hexylene glycol | capable of stripping nucleotides from ternary complexes while retaining polymerase association with primed-template nucleic acid | did not perform as well as isopropanol |  |  |  |  |
| CC(O)CCO (stereo not drawn) [1,3 butanediol] | capable of stripping nucleotides from ternary complexes while retaining polymerase association with primed-template nucleic acid | did not perform as well as isopropanol |  |  |  |  |
| NCCCO [3-Amino-1-propanol] | can also be useful |  |  |  |  |  |
| CC(C)O [Isopropanol, reference compound] |  |  |  | 16-20% |  | Foam stability [3]: foam can be maintained to some degree |
| OCCCCCCCO [1,7 heptanediol] |  | outperformed NSB having isopropanol | better |  | better |  |
